From PMC5424463, “A strategy based on nucleotide specificity leads to a subfamily-selective and cell-active inhibitor of N ^6-methyladenosine demethylase FTO” (Chemical Science, 2014)

Target: T1, PHD2 (Homo sapiens, UniProt Q9GZT9)
T1 construct: Full length human PHD2 (fused to a MYC/DDK tag at C-terminal); purchased Origene Technology, USA
Experiment: MALDI-based inhibition assay for PHD2
Assay type: biochemical
Details: 19-mer peptide substrate
Method: IC50s were then calculated from the variation in percentage demethylation at different inhibitor concentrations, using nonlinear regression, with normalized dose-response fit on […]
MALDI-based inhibition assays for FTO and ALKBH5
The assay was modified from previously reported method.[5] An 8-mer m6A-ssDNA substrate with the sequence 5’-TCA(m6A)CAGC-3’ (Yale University, W.M. Keck Foundation Biotechnology Resource Laboratory) was used in this inhibition assay. The assay was performed in triplicate for each inhibitor, in a final reaction volume of 25 µL. Reaction consisted of FTO (2 µM) or ALKBH5 (4 µM), 2OG (150 µM), (NH4)2Fe(SO4)2·6H2O (150 µM), L-ascorbate (2 mM), m6A-ssDNA substrate (100 µM), in 50 mM HEPES buffer, pH 7.5, and inhibitor at various concentrations (final DMSO concentration not more than 1% v/v of assay mix). The reaction was incubated at room temperature for 30 min, before 1:1 quenching with 20% v/v formic acid. 1 uL of the diluted assay mixture was then mixed with 1 uL of 3-hydroxpicolinic acid (3-HPA, the MALDI-TOF-MS matrix, Sigma-Aldrich) and spotted onto the MALDI-TOF-MS plate before analysis. The 3-HPA matrix was prepared by mixing 9 parts of 50 mg/mL 3-hydroxpicolinic acid in 50% MeCN/Milli-Q H2O with 1 part of 50 mg/mL ammonium citrate in Milli-Q H2O. […]

T1 sequence (Q9GZT9 whole entry, the tested form may be a part): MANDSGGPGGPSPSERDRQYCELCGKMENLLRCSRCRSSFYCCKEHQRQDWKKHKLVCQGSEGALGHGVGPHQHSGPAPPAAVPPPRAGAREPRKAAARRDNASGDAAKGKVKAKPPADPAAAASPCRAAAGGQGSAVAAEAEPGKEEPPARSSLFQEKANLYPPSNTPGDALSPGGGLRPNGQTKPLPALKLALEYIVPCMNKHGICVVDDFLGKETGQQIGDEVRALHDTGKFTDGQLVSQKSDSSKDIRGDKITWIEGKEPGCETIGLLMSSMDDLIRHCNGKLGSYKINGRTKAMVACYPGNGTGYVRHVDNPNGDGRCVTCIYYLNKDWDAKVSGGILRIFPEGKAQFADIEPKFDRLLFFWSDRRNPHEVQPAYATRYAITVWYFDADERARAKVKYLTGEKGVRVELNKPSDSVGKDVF

SMILES: O=C(O)/C=C/C(=O)NNC(=O)c1cnccc1Cc1ccccc1 [Compound 12]
- IC50: > 100 µM
